Measured values published in paper PMC6437697 (Journal of Medicinal Chemistry, 2019).

Experiments:
Experiment in all cases: KINOMEscan
Type in all cases: binding
Settings in all cases: read-out: % control activity remaining
PRKR = target: T1, PRKR (Homo sapiens, UniProt P19525)
T1 construct: purchased Eurofins DiscoverX KINOMEscan

[1] = target: T2, ABL1(Q252H)-phosphorylated (Homo sapiens, UniProt P00519, Q252H)
T2 construct: purchased Eurofins DiscoverX KINOMEscan

IKK-epsilon = target: T3, IKK-epsilon (Homo sapiens, UniProt Q14164)
T3 construct: purchased Eurofins DiscoverX KINOMEscan
T3 sequence (Q14164 1-716): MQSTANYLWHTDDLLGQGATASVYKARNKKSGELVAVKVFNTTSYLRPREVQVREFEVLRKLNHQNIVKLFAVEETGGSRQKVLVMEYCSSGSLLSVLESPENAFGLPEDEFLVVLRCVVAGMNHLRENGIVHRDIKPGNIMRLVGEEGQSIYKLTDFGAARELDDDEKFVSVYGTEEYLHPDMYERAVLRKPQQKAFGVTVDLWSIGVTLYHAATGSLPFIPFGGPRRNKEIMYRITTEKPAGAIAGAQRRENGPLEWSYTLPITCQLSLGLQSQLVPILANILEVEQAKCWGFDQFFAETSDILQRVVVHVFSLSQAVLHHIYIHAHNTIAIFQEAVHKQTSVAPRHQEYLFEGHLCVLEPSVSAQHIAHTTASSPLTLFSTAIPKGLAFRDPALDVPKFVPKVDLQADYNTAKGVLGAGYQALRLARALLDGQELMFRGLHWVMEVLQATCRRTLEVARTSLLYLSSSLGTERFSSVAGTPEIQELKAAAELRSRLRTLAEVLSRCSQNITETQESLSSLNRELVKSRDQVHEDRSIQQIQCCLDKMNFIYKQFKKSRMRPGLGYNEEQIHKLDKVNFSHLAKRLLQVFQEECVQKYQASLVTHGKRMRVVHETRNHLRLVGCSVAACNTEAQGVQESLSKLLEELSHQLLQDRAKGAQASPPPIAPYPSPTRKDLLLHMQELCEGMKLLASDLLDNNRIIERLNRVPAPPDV

LKB1 = target: T4, LKB1 (Homo sapiens, UniProt Q15831)
T4 construct: purchased Eurofins DiscoverX KINOMEscan
T4 sequence (Q15831 1-433): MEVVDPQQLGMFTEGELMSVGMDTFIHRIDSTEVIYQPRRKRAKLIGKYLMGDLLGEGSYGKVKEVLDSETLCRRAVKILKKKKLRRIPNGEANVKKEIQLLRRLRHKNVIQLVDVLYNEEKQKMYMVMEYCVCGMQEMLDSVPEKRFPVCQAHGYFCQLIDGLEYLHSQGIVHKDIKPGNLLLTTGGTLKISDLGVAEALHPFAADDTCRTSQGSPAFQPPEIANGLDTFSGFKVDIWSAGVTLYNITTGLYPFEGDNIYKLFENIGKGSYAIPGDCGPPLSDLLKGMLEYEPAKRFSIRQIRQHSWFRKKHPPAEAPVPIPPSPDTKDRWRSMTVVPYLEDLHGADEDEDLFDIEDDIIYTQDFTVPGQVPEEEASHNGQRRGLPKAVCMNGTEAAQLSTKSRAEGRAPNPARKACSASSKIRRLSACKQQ

PKAC-alpha = target: T5, PKAC-alpha (Homo sapiens, UniProt P17612)
T5 construct: purchased Eurofins DiscoverX KINOMEscan

RIPK5 = target: T6, RIPK5 (Homo sapiens, UniProt Q6XUX3)
T6 construct: purchased Eurofins DiscoverX KINOMEscan
T6 sequence (Q6XUX3 1-929): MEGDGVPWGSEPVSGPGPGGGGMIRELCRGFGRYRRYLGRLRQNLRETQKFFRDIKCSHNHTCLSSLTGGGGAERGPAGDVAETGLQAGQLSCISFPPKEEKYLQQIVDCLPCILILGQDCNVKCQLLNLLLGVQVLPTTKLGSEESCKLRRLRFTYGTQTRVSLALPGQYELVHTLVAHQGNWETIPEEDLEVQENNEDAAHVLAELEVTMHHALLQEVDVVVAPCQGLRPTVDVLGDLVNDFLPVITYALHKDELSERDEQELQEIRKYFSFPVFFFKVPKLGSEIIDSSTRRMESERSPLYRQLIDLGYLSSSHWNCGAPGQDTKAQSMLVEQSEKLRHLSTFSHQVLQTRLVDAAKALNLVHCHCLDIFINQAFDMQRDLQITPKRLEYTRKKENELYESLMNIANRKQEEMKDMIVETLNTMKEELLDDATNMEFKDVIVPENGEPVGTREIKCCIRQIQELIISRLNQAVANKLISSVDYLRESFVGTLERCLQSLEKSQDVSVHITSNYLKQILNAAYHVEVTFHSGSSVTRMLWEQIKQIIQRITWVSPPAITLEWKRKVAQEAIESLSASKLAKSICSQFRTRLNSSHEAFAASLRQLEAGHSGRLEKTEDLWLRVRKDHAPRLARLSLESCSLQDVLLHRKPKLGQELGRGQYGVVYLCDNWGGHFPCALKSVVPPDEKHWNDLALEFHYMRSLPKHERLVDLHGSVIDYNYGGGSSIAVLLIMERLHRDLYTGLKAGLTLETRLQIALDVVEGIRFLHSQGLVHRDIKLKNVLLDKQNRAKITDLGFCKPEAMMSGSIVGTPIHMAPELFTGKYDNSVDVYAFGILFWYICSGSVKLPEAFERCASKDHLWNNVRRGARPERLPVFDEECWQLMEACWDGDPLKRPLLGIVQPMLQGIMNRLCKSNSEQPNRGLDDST

PRKCI = target: T7, PRKCI (Homo sapiens, UniProt P41743)
T7 construct: purchased Eurofins DiscoverX KINOMEscan
T7 sequence (P41743 1-596): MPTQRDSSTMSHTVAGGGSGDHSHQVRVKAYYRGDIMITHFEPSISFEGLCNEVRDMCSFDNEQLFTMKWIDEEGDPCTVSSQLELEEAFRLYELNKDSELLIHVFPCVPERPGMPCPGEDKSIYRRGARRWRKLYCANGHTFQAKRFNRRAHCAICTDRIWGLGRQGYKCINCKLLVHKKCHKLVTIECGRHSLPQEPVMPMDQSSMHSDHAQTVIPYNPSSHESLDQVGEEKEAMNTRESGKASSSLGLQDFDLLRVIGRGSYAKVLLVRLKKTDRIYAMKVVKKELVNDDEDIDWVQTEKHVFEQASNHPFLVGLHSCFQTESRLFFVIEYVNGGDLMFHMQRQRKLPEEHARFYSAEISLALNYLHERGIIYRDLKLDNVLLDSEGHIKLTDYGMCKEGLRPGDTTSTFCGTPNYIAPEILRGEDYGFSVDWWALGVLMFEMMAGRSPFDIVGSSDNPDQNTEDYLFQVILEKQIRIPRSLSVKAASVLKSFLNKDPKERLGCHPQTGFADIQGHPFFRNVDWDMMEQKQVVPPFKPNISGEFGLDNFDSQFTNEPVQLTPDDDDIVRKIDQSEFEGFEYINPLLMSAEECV

EGFR(S752-I759del) = target: T8, EGFR(S752-I759del) (Homo sapiens, UniProt P00533, DEL752-759)
T8 construct: purchased Eurofins DiscoverX KINOMEscan
T8 sequence (P00533 with tags, fused parts or gaps DEL752-759 limits assumed): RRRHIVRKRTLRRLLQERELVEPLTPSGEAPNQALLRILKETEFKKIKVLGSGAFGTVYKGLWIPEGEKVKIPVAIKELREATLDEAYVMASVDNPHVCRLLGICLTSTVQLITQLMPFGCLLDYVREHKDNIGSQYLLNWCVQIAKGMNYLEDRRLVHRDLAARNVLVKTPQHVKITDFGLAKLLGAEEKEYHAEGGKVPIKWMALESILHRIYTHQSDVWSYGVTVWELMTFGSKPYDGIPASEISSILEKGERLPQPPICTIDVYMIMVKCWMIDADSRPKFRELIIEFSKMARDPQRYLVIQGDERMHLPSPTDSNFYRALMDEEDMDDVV

T1 sequence (P19525 whole entry): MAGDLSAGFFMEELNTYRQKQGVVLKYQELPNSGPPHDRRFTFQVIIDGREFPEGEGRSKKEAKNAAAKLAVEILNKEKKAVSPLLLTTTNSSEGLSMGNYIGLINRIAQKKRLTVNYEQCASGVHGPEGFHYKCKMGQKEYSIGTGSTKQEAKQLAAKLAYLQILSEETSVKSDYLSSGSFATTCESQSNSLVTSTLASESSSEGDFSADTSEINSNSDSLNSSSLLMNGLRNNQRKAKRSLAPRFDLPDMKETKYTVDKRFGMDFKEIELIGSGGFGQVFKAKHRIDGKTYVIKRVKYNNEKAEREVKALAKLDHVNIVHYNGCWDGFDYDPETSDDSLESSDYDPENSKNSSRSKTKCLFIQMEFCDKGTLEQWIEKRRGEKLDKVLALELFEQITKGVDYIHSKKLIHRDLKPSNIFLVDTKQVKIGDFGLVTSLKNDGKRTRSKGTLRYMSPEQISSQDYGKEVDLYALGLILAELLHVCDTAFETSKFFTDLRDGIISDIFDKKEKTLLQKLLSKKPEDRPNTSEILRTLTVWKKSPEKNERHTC

Which remaining binding at 1 µM (PRKR) does the source give for Clc1cc(NCC2CC2)c2ncc(-c3ccc4[nH]ncc4c3)n2n1 [compound 2, 6-Chloro-N-(cyclopropylmethyl)-3-(1H-indazol-5-yl)imidazo[1,2-b]pyridazin-8-amine] here?
Its remaining binding at 1 µM is 97%.

And the remaining binding at 1 µM [1]?
Its remaining binding at 1 µM is 78%.

And the remaining binding at 1 µM (IKK-epsilon)?
Its remaining binding at 1 µM is 94%.

And the remaining binding at 1 µM (LKB1)?
Its remaining binding at 1 µM is 52%.

And the remaining binding at 1 µM (PKAC-alpha)?
The remaining binding at 1 µM was 68%.

What about the remaining binding at 1 µM (RIPK5) of the same compound?
Its remaining binding at 1 µM is 98%.

And the remaining binding at 1 µM (PRKCI)?
Its remaining binding at 1 µM is 88%.

What about the remaining binding at 1 µM (EGFR(S752-I759del)) of the same compound?
The remaining binding at 1 µM was 94%.

With O=C(CN1CCOCC1)N[C@H]1CC[C@H](Nc2cc(Cl)nn3c(-c4ccc5[nH]ncc5c4)cnc23)CC1 [compound 26] as the compound, how does the remaining binding at 1 µM (PRKR) read?
The remaining binding at 1 µM was 97%.

And the remaining binding at 1 µM [1]?
Its remaining binding at 1 µM is 46%.

What about the remaining binding at 1 µM (IKK-epsilon) of the same compound?
The remaining binding at 1 µM was 100%.

What about the remaining binding at 1 µM (LKB1) of the same compound?
Its remaining binding at 1 µM is 98%.

And the remaining binding at 1 µM (PKAC-alpha)?
The remaining binding at 1 µM was 100%.

What about the remaining binding at 1 µM (RIPK5) of the same compound?
Its remaining binding at 1 µM is 91%.

And the remaining binding at 1 µM (PRKCI)?
Its remaining binding at 1 µM is 100%.

And the remaining binding at 1 µM (EGFR(S752-I759del))?
Its remaining binding at 1 µM is 95%.

For CN1CCC(CNc2cc(Cl)nn3c(-c4cc5nc(Nc6ccccc6)[nH]c5cc4F)cnc23)CC1 [compound 31, 6-Chloro-3-(6-fluoro-2-(phenylamino)-1H-benzo[d]imidazol-5-yl)-N-((1-methylpiperidin-4-yl)methyl)imidazo[1,2-b]pyridazin-8-amine], which remaining binding at 1 µM (PRKR) is on record?
Its remaining binding at 1 µM is 81%.

What about the remaining binding at 1 µM [1] of the same compound?
The remaining binding at 1 µM was 79%.

And the remaining binding at 1 µM (IKK-epsilon)?
Its remaining binding at 1 µM is 78%.

What about the remaining binding at 1 µM (LKB1) of the same compound?
The remaining binding at 1 µM was 77%.

What about the remaining binding at 1 µM (PKAC-alpha) of the same compound?
The remaining binding at 1 µM was 94%.

And the remaining binding at 1 µM (RIPK5)?
The remaining binding at 1 µM was 79%.

What about the remaining binding at 1 µM (PRKCI) of the same compound?
The remaining binding at 1 µM was 89%.

And the remaining binding at 1 µM (EGFR(S752-I759del))?
Its remaining binding at 1 µM is 97%.
